From ChEMBL document CHEMBL4396888, “Design and Synthesis of Potent, Selective Inhibitors of Protein Arginine Methyltransferase 4 against Acute Myeloid Leukemia” (J Med Chem, 2019)
Activity calls are given as the source filed them. The calls are words filed in the database; no cut-off is given here.

What was measured:
[1] = biological target: T1, Histone-arginine methyltransferase CARM1 (Homo sapiens, UniProt Q86X55); test: Inhibition of PRMT4 (unknown origin) using histone H3 (21 to 44 residues) as substrate measured after 60 mins in presence of SAM by AlphaLisa assay
T1 sequence (Q86X55 whole entry): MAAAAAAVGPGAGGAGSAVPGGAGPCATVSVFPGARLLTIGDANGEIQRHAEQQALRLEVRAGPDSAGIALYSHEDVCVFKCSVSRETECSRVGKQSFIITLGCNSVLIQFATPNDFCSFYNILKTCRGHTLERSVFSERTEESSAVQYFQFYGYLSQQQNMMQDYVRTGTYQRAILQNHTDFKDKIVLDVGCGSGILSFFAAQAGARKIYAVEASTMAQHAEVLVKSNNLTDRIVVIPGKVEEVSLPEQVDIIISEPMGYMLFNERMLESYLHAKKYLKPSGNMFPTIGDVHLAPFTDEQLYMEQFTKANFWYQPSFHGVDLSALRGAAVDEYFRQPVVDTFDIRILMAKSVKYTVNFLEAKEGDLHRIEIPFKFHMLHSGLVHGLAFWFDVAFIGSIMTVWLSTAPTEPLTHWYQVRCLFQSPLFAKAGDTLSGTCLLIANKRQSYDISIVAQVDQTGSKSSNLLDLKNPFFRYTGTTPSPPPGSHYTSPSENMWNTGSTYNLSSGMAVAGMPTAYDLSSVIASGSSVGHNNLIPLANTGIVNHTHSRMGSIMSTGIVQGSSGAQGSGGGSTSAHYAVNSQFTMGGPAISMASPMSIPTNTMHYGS

[2] = biological target: Protein arginine N-methyltransferase 1 (Homo sapiens, UniProt Q99873); test: Inhibition of PRMT1 (unknown origin) preincubated for 15 mins followed by substrate addition and measured after 60 mins by AlphaLisa assay
[3] = biological target: Protein arginine N-methyltransferase 6 (Homo sapiens, UniProt Q96LA8); test: Inhibition of PRMT6 (unknown origin) preincubated for 15 mins followed by substrate addition and measured after 60 mins by AlphaLisa assay
[4] = biological target: Protein arginine N-methyltransferase 7 (Homo sapiens, UniProt Q9NVM4); test: Inhibition of recombinant full-length human PRMT7 expressed in Sf9 insect cells using Ac-KKDGKKRKRSRKESYK-biotin as substrate measured after 30 mins in presence of SAM by topcount scintillation counting method
[5] = biological target: Protein arginine N-methyltransferase 8 (Homo sapiens, UniProt Q9NR22); test: Inhibition of PRMT8 (unknown origin) preincubated for 15 mins followed by substrate addition and measured after 60 mins by AlphaLisa assay
[6] = biological target: Protein arginine N-methyltransferase 5 (Homo sapiens, UniProt O14744); test: Inhibition of PRMT5 (unknown origin) preincubated for 15 mins followed by substrate addition and measured after 60 mins by AlphaLisa assay
[7] = biological target: Histone-lysine N-methyltransferase EZH2 (Homo sapiens) (UniProt Q15910); test: Inhibition of EZH2 (unknown origin) up to 50 uM preincubated for 10 mins followed by peptide substrate addition and measured after 4 hrs in presence of SAM by HTRF assay
[8] = biological target: Histone-lysine N-methyltransferase SETD2 (Homo sapiens) (UniProt Q9BYW2); test: Inhibition of SETD2 (unknown origin) up to 50 uM
[9] = test system: MV4-11; test: Antiproliferative activity against human MV4-11 cells measured after 6 days by CCK8/SRB assay; assay type: functional, cell-based
[10] = test system: MOLM-13; test: Antiproliferative activity against human MOLM13 cells measured after 6 days by CCK8/SRB assay; conditions: MOLM-13, 144 h
[11] = test system: THP-1; test: Antiproliferative activity against human THP1 cells measured after 6 days by CCK8/SRB assay; assay type: functional, cell-based
[12] = test system: MONO-MAC-6; test: Antiproliferative activity against human MONO-MAC-6 cells measured after 6 days by CCK8/SRB assay; assay type: functional, cell-based
[13] = test system: K562; test: Antiproliferative activity against human K562 cells measured after 6 days by CCK8/SRB assay; assay type: functional, cell-based
[14] = biological target: T1, Histone-arginine methyltransferase CARM1; test: Inhibition of PRMT4 in human MOLM13 cells assessed as reduction in BAF155 dimethylation measured after 96 hrs by Western blotting analysis; assay type: cell-based
[15] = biological target: T1, Histone-arginine methyltransferase CARM1; test: Inhibition of PRMT4 in human MOLM13 cells assessed as reduction in PABP1 dimethylation measured after 96 hrs by Western blotting analysis; assay type: cell-based
[16] = Selectivity ratio of IC50 for antiproliferative activity against human MOLM13 cells to IC50 for inhibition of PRMT4 in human MOLM13 cells assessed as reduction in PABP1 dimethylation
[17] = test system: MOLM-13; test: Induction of apoptosis in human MOLM13 cells measured after 96 hrs by Annexin V-FITC/propidium iodide staining-based flow cytometry; assay type: functional, cell-based
[18] = test system: MOLM-13; test: Induction of apoptosis in human MOLM13 cells assessed as total apoptotic cells at 12 uM measured after 96 hrs by Annexin V-FITC/propidium iodide staining-based flow cytometry relative to control; assay type: functional
[19] = Clearance in ICR mouse at 3 mg/kg, iv by mass spectrometric analysis; assay type: ADME, organism-based; conditions: in vivo
[20] = Volume of distribution at steady state in ICR mouse at 3 mg/kg, iv by mass spectrometric analysis; assay type: ADME, organism-based; conditions: in vivo, read-out: Vdss
[21] = Half life in ICR mouse at 3 mg/kg, iv by mass spectrometric analysis; assay type: ADME, organism-based; conditions: in vivo
[22] = AUC (0 to last) in ICR mouse at 3 mg/kg, iv by mass spectrometric analysis; assay type: ADME, organism-based; parameters: dose 3 mg/kg, route intravenous, time 0 - last; conditions: in vivo
[23] = Cmax in ICR mouse at 10 mg/kg, po administered via gavage by mass spectrometric analysis; assay type: ADME, organism-based; parameters: dose 10 mg/kg, route oral; conditions: in vivo
[24] = AUC (0 to last) in ICR mouse at 10 mg/kg, po administered via gavage by mass spectrometric analysis; assay type: ADME, organism-based; parameters: dose 10 mg/kg, route oral, time 0 - last; conditions: in vivo
[25] = AUC (0 to infinity) in ICR mouse at 10 mg/kg, po administered via gavage by mass spectrometric analysis; assay type: ADME, organism-based; parameters: dose 10 mg/kg, time infinity, route oral; conditions: in vivo
[26] = Oral bioavailability in ICR mouse at 10 mg/kg administered via gavage by mass spectrometric analysis; assay type: ADME, organism-based; conditions: in vivo
[27] = Drug level in ICR mouse plasma at 10 mg/kg, po administered via gavage measured after 0.25 to 24 hrs by mass spectrometric analysis; assay type: ADME, organism-based; conditions: in vivo
[28] = Protein binding in mouse plasma at 2 uM; assay type: ADME, cell-free; conditions: read-out: PPB (converted)
[29] = test system: Mus musculus; test: In vivo inhibition of PRMT4 in nude BALB/c mouse xenografted with human MOLM13 cells assessed as reduction in BAF155 dimethylation at 100 mg/kg, po administered daily for 18 days measured 6 hrs post-last dose by Western blot analysis; assay type: functional, organism-based
[30] = Ratio of drug level in tumor of nude BALB/c mouse xenografted with human MOLM13 cells to IC50 for antiproliferative activity against human MOLM13 cells; assay type: cell-based
[31] = Toxicity in nude BALB/c mouse xenografted with human MOLM13 cells assessed as body weight loss at 100 mg/kg, po administered daily for 18 days measured 2 to 3 times a week during compound dosing; assay type: organism-based; conditions: in vivo, 432 h
[32] = Toxicity in nude BALB/c mouse xenografted with human MOLM13 cells assessed as visible changes at 100 mg/kg, po administered daily for 18 days; assay type: organism-based; conditions: in vivo, 432 h

Sequence of Protein arginine N-methyltransferase 7 (Q9NVM4 whole entry): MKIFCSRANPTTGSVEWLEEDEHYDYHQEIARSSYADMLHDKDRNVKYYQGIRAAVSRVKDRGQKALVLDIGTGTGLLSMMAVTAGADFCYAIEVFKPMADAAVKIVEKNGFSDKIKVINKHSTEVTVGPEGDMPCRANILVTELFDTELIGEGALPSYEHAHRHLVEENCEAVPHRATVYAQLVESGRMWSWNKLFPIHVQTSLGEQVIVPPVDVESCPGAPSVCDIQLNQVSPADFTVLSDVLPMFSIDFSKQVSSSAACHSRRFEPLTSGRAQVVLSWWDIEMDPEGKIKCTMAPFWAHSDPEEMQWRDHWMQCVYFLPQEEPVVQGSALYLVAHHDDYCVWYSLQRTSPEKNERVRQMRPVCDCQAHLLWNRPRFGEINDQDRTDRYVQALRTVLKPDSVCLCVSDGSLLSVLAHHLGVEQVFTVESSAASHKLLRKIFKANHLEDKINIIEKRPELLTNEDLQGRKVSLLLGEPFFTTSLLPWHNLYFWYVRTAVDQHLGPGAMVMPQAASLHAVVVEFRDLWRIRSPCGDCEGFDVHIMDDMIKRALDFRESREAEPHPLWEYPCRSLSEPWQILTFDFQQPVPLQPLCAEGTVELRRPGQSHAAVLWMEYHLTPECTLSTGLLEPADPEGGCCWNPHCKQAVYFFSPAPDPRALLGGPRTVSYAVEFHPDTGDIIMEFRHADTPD
Sequence of Protein arginine N-methyltransferase 8 (Q9NR22 whole entry): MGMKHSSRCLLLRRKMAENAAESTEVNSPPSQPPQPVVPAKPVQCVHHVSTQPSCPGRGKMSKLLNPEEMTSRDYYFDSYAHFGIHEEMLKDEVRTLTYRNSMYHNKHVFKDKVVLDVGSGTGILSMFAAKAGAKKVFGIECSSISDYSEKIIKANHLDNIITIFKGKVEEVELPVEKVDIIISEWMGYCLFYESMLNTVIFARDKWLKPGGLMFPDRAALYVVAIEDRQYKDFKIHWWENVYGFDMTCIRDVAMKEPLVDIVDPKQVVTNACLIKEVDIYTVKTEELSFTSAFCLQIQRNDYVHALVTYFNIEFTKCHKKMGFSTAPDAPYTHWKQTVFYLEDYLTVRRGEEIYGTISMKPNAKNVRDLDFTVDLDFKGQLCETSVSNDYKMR
Sequence of Histone-lysine N-methyltransferase EZH2 (Homo sapiens) (Q15910 whole entry, looked up): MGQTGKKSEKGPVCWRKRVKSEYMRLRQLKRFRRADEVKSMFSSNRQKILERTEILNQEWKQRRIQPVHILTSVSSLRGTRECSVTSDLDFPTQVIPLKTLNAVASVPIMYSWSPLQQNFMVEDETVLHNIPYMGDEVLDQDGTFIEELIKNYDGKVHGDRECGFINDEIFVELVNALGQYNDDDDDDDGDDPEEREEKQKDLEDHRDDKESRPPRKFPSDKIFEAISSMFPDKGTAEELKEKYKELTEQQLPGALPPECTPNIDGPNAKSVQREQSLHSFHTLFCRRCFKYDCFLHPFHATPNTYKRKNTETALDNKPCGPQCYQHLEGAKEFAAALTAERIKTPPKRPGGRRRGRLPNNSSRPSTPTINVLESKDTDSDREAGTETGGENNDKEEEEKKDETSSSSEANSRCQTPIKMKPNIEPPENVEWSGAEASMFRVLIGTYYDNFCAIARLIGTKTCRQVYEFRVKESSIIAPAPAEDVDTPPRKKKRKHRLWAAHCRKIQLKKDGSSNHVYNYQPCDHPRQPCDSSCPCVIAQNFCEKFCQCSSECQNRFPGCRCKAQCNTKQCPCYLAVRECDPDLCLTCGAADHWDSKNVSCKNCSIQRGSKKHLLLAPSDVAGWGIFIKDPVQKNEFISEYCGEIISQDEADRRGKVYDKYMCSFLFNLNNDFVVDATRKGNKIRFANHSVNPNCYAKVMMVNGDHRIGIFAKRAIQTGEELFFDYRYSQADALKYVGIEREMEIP
Sequence of Protein arginine N-methyltransferase 1 (Q99873 whole entry): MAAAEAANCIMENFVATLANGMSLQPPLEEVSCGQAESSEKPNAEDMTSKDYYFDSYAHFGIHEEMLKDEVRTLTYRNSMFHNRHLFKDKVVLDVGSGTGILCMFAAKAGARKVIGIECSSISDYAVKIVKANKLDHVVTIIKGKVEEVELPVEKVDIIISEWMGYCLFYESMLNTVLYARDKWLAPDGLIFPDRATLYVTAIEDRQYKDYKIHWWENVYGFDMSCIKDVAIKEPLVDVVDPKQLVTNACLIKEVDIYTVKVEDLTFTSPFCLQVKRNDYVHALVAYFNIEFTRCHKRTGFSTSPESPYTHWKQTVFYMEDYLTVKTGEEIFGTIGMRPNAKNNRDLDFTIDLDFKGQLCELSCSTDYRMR
Sequence of Histone-lysine N-methyltransferase SETD2 (Homo sapiens) (Q9BYW2 whole entry): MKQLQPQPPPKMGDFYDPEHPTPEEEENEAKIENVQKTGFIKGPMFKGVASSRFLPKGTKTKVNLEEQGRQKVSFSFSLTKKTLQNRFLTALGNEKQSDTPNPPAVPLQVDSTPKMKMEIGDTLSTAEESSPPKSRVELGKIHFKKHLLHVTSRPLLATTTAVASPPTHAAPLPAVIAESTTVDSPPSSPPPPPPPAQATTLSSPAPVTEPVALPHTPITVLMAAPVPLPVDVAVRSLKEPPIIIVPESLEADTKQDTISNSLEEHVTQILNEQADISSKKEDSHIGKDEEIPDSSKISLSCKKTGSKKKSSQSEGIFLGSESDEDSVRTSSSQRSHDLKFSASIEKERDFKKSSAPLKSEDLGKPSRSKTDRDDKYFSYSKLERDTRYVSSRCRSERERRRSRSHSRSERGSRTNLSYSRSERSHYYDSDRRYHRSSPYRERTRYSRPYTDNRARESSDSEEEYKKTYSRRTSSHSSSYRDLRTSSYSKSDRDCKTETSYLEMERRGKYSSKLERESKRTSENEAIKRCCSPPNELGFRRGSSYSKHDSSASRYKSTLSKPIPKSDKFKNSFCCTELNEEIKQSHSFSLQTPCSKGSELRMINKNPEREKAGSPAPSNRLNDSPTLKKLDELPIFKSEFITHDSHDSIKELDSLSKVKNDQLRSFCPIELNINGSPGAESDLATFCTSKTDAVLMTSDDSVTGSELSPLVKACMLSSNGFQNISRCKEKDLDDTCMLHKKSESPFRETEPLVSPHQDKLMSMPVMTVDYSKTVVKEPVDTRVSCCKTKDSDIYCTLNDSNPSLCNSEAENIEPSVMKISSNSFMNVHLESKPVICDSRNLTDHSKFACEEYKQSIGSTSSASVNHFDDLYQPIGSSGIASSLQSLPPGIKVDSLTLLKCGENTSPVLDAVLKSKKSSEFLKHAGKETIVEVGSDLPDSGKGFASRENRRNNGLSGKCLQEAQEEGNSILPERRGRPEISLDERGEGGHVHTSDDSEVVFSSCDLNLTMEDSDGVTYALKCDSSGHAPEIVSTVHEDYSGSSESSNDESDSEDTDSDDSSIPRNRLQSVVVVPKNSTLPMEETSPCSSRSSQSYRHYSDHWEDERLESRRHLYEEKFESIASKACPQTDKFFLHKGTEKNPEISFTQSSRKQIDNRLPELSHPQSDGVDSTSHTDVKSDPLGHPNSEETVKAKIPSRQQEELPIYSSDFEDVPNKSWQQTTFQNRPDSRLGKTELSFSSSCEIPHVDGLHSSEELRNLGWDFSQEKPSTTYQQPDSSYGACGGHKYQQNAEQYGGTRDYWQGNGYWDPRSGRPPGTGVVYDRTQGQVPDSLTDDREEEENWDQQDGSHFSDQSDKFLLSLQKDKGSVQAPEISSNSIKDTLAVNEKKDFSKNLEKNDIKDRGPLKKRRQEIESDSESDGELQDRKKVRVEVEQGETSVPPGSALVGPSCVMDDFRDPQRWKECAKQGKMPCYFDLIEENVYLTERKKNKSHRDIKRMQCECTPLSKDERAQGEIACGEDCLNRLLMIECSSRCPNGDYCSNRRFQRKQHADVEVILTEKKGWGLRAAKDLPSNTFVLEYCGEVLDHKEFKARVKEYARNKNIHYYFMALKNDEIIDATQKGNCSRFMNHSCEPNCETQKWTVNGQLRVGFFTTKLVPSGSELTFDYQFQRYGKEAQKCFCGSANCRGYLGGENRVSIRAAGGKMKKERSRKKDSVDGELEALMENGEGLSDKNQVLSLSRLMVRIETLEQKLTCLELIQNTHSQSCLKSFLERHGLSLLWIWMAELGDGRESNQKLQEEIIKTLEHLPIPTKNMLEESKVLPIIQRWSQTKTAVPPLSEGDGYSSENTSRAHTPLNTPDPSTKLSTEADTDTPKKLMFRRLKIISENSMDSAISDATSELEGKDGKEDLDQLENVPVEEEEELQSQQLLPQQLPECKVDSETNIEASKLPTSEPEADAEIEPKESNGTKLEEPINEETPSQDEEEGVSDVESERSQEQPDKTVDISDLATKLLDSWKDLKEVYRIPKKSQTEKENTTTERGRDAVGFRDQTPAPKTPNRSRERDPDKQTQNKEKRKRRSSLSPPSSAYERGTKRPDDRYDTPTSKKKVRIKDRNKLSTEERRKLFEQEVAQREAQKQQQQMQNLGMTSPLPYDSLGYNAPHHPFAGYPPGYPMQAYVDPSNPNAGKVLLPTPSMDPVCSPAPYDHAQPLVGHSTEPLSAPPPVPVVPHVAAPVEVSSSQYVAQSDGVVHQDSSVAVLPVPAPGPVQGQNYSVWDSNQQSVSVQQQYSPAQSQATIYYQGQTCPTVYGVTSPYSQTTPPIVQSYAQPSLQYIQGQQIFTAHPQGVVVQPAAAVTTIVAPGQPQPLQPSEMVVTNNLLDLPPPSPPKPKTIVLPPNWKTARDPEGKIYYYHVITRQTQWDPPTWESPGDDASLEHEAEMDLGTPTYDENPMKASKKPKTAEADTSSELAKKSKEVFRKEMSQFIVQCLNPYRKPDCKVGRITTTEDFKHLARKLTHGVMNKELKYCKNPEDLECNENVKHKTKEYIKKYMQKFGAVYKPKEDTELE

With `CNC[C@@H](O)CN1CCc2c(cccc2OCc2ccc(-c3nccs3)cc2)C1` the IC50 [1] was 0.021 µM, the IC50 [2] was 8.6 µM and the IC50 [3] was 7.9 µM. For the same molecule, the IC50 [4] was > 30 µM, the IC50 [5] was 3.7 µM and the IC50 [6] was > 30 µM. For the same molecule, the inhibition [7] was “inactive”, the inhibition [8] was “inactive” and the Activity [9] was “Dose-dependent effect”. For the same molecule, the IC50 [10] was 6.93 µM, the Activity [11] was “Dose-dependent effect” and the Activity [12] was “Dose-dependent effect”. The Activity [13] was “Dose-dependent effect”, the IC50 [14] was 0.369 µM and the IC50 [15] was 0.545 µM. For the same molecule, the “Ratio IC50” value [16] was 10, the Activity [17] was “Dose-dependent effect” and the Activity [18] was 96.4%. It also gave a clearance [19] of 44.9 mL/min/kg, a Vd [20] of 42.6 L/kg and a half-life [21] of 12.1 h. The AUC(0-t) [22] was 869 ng·h/mL, the Cmax [23] was 75.4 ng/mL and the AUC(0-t) [24] was 1410 ng·h/mL. For the same molecule, the AUC(0-inf) [25] was 3030 ng·h/mL, the bioavailability [26] was 48.8% and the concentration [27] was 120 nM. For the same molecule, the fraction unbound at 2 µM [28] was 0.02, the inhibition [29] was “Active” and the Ratio [30] was 20 to 30. For the same molecule, the Activity [31] was “Non-Toxic” and the Activity [32] was “Non-Toxic”.
